SMILES strings stand for the structures.

This note sets out measurements from patent US7973047B2, “Beta-Secretase modulators and methods of use” (Amgen Inc., priority 2010, dated 2011).

One test has as its system Aβ40 in conditioned medium of cells stably expressing Amyloid Precursor Protein (APP). Description: BACE cell-based assay: Aβ40 in conditioned medium by sandwich ELISA. Conditions: cell based assay data of Table 4; unit inferred; read-out: Cell Assay. How it is done:
The cell-based assay measures inhibition or reduction of Aβ40 in conditioned medium of test compound treated cells expressing amyloid precursor protein.
Cells stably expressing Amyloid Precursor Protein (APP) were plated at a density of 40K cells/well in 96 well plates (Costar). The cells were cultivated for 24 hours at 37° C. and 5% CO2 in DMEM supplemented with 10% FBS. The test compounds were then added to cells in 10-point dose response concentrations with the starting concentration being either 100 μM or 10 μM. The compounds were diluted from stock solutions in DMSO and the final DMSO concentration of the test compounds on cells was 0.1%. After 24 h of incubation with the test compounds the supernatant conditioned media was collected and the Aβ40 levels were determined using a sandwich ELISA. The ICso of the compound was calculated from the percent of control or percent inhibition of Aβ40 as a function of the concentration of the test compound.
The sandwich ELISA to detect Aβ40 was performed in 96 well microtiter plates, which were pre-treated with goat anti-rabbit IgG (Pierce). The capture and detecting antibody pair that were used to detect Aβ40 from cell supernatants were affinity purified pAb40 (Biosource) and biotinylated 6E10 (Signet Labs Inc.), respectively. The optimal concentration for the pAb40 antibody was 3 μg/ml in Superblock/TBS (Pierce) that was supplemented with 0.05% Tween 20 (Sigma).
Cellular supernatants were incubated with the capture antibody for 3 h at 4° C., followed by 3 wash steps in TBS-tween (0.05%). The detecting antibody incubation was for 2 h at 4° C., again followed by the wash steps as described previously. The final readout of the ELISA is Time-Resolved Fluorescence (counts per minute) using Delfia reagents Streptavidin-Europium and Enhancement solutions (Perkin Elmer) and the Victor 2 multilabel counter (Perkin Elmer).
(In general: An ELISA detects its analyte on a solid surface through an enzyme-linked reagent.)
For the molecule `CC(=O)N[C@@H](Cc1ccc(F)cc1)[C@H](O)CN[C@H]1CC2(CCC2)Oc2c1cc(CC(C)(C)C)nc2OC(C)C` [compound 608, N-((1S,2R)-3-(((4′S)-6′-(2,2-dimethylpropyl)-8′-((1-methylethyl)oxy)-3′,4′-dihydrospiro[cyclobutane-1,2′-pyrano[2,3-c]pyridin]-4′-yl)amino)-1-((4-fluorophenyl)methyl)-2-hydroxypropyl)acetamide], the IC50 was 0.0643 µM.

For the molecule `CC(=O)N[C@@H](Cc1cccc(F)c1)[C@H](O)CN[C@@H]1CC2(CCC2)Oc2c1cc(CC(C)(C)C)nc2OC(C)C` [compound 609], the IC50 is 0.0667 µM.

As to `CC(=O)N[C@@H](Cc1cc(F)cc(F)c1)[C@H](O)CN[C@@H]1CC2(CCC2)Oc2c1cc(CC(C)(C)C)nc2OC(C)C` [compound 611], the IC50 was found to be 0.161 µM.

Consider `CC(=O)N[C@@H](Cc1cc(F)cc(F)c1)[C@H](O)CN[C@H]1CC2(CCC2)Oc2c1cc(CC(C)(C)C)nc2OC(C)C` [compound 612, N-((1S,2R)-1-((3,5-difluorophenyl)methyl)-3-(((4′S)-6′-(2,2-dimethylpropyl)-8′-((1-methylethyl)oxy)-3′,4′-dihydrospiro[cyclobutane-1,2′-pyrano[2,3-c]pyridin]-4′-yl)amino)-2-hydroxypropyl)acetamide], for which the IC50 came to 0.0242 µM.

As for `COc1nc(CC(C)(C)C)cc2c1OC1(CCC1)C[C@@H]2NC[C@@H](O)[C@H](Cc1ccc(F)cc1)NC(C)=O` [compound 613], the IC50 came out at 0.103 µM.

For `COC1CN(c2nc(CC(C)(C)C)cc3c2OC2(CCC2)C[C@@H]3NC[C@@H](O)[C@H](Cc2ccc(F)cc2)NC(C)=O)C1` [compound 614], the IC50 was determined as 0.059 µM.

As for `CC(=O)N[C@@H](Cc1ccc(F)cc1)[C@H](O)CN[C@H]1C[C@]2(C[C@H](C)C2)Oc2ncc(CC(C)C)cc21` [compound 615, N-((1S,2R)-1-((4-fluorophenyl)methyl)-2-hydroxy-3-(((1s,3R,4′S)-3-methyl-6′-(2-methylpropyl)-3′,4′-dihydrospiro[cyclobutane-1,2′-pyrano[2,3-b]pyridin]-4′-yl)amino)propyl)acetamide], the IC50 is 0.0248 µM.

Take `CC(=O)N[C@@H](Cc1ccc(F)cc1)[C@H](O)CN[C@H]1C[C@]2(C[C@@H](C)C2)Oc2ncc(CC(C)C)cc21` [compound 616, N-((1S,2R)-1-((4-fluorophenyl)methyl)-2-hydroxy-3-(((1r,3S,4′S)-3-methyl-6′-(2-methylpropyl)-3′,4′-dihydrospiro[cyclobutane-1,2′-pyrano[2,3-b]pyridin]-4′-yl)amino)propyl)acetamide]: the IC50 is 0.0627 µM.

`CC(=O)N[C@@H](Cc1cccc(F)c1)[C@H](O)CN[C@H]1C[C@]2(C[C@H](C)C2)Oc2ncc(CC(C)C)cc21` [compound 617, N-((1S,2R)-1-((3-fluorophenyl)methyl)-2-hydroxy-3-(((1s,3R,4′S)-3-methyl-6′-(2-methylpropyl)-3′,4′-dihydrospiro[cyclobutane-1,2′-pyrano[2,3-b]pyridin]-4′-yl)amino)propyl)acetamide]: the IC50 amounted to 0.00298 µM.

Turning to `CC(=O)N[C@@H](Cc1ccc(Cl)cc1)[C@H](O)CN[C@H]1C[C@]2(C[C@H](C)C2)Oc2ncc(CC(C)C)cc21` [compound 618, N-((1S,2R)-1-((4-chlorophenyl)methyl)-2-hydroxy-3-(((1s,3R,4′S)-3-methyl-6′-(2-methylpropyl)-3′,4′-dihydrospiro[cyclobutane-1,2′-pyrano[2,3-b]pyridin]-4′-yl)amino)propyl)acetamide], the IC50 stood at 0.0722 µM.

For the molecule `CC(=O)N[C@@H](Cc1ccc(F)cc1)[C@H](O)CN[C@H]1C[C@]2(CC[C@@H]2C)Oc2ncc(CC(C)(C)C)cc21` [compound 619], the IC50 amounted to 0.0326 µM.

For the molecule `CC(=O)N[C@@H](Cc1ccc(Cl)cc1)[C@H](O)CN[C@H]1C[C@]2(CC[C@@H]2C)Oc2ncc(CC(C)(C)C)cc21` [compound 620], the IC50 is 0.062 µM.

For `CC(=O)N[C@@H](Cc1ccc(F)cc1)[C@H](O)CN[C@H]1C[C@@]2(CC[C@H]2C)Oc2ncc(CC(C)(C)C)cc21` [compound 621], the IC50 is ≥ 10 µM.

Consider `CC(=O)N[C@@H](Cc1ccc(Cl)cc1)[C@H](O)CN[C@H]1C[C@@]2(CC[C@H]2C)Oc2ncc(CC(C)(C)C)cc21` [compound 622], for which the IC50 was ≥ 10 µM.

In the case of `CC(=O)N[C@@H](Cc1ccc(F)cc1)[C@H](O)CN[C@H]1C[C@]2(CC[C@H]2C)Oc2ncc(CC(C)(C)C)cc21` [compound 623], the IC50 is 0.0382 µM.

Turning to `CC(=O)N[C@@H](Cc1ccc(Cl)cc1)[C@H](O)CN[C@H]1C[C@]2(CC[C@H]2C)Oc2ncc(CC(C)(C)C)cc21` [compound 624], the IC50 stood at 0.0615 µM.

Regarding `CC(=O)N[C@@H](Cc1ccc(F)cc1)[C@H](O)CN[C@H]1C[C@@]2(CC[C@@H]2C)Oc2ncc(CC(C)(C)C)cc21` [compound 625], the IC50 was ≥ 10 µM.

On to `CC(=O)N[C@@H](Cc1ccc(Cl)cc1)[C@H](O)CN[C@H]1C[C@@]2(CC[C@@H]2C)Oc2ncc(CC(C)(C)C)cc21` [compound 626], for which the IC50 is ≥ 10 µM.

For `COC(=O)N[C@@H](Cc1ccc(Cl)cc1)[C@H](O)CN[C@H]1CC2(CCC2)Oc2ncc(CC(C)(C)C)cc21` [compound 627], the IC50 was determined as 0.936 µM.

Turning to `COCC(=O)N[C@@H](Cc1ccc(F)cc1)[C@H](O)CN[C@H]1CC2(CCC2)Oc2ncc(CC(C)(C)C)cc21` [compound 628], the IC50 came out at 0.0105 µM.

Consider `CC(C)(C)Cc1cnc2c(c1)[C@@H](NC[C@@H](O)[C@H](Cc1ccc(F)cc1)NC(=O)C(F)F)CC1(CCC1)O2` [compound 630], for which the IC50 was found to be 0.0364 µM.

With `CC(C)(C)Cc1cnc2c(c1)[C@@H](NC[C@@H](O)[C@H](Cc1ccc(F)cc1)NC(=O)C(F)(F)F)CC1(CCC1)O2` [compound 631], the IC50 was determined as 0.057 µM.

In the case of `CC(C)(C)Cc1cnc2c(c1)[C@@H](NC[C@@H](O)[C@H](Cc1ccc(F)cc1)NC(=O)CC(F)(F)F)CC1(CCC1)O2` [compound 632], the IC50 was 0.308 µM.

As for `COCCC(=O)N[C@@H](Cc1ccc(F)cc1)[C@H](O)CN[C@H]1CC2(CCC2)Oc2ncc(CC(C)(C)C)cc21` [compound 633], the IC50 came out at 0.0171 µM.

`CC(=O)N[C@@H](Cc1cscn1)[C@H](O)CN[C@H]1CC2(CCC2)Oc2ncc(CC(C)(C)C)cc21` [compound 634, N-((1S,2R)-3-(((4′S)-6′-(2,2-dimethylpropyl)-3′,4′-dihydrospiro[cyclobutane-1,2′-pyrano[2,3-b]pyridin]-4′-yl)amino)-2-hydroxy-1-(1,3-thiazol-4-ylmethyl)propyl)acetamide]: the IC50 is 0.0142 µM.

Take `CC(=O)N[C@@H](Cc1ccncc1)[C@H](O)CN[C@H]1CC2(CCC2)Oc2ncc(CC(C)(C)C)cc21` [compound 635, N-((1S,2R)-3-(((4′S)-6′-(2,2-dimethylpropyl)-3′,4′-dihydrospiro[cyclobutane-1,2′-pyrano[2,3-b]pyridin]-4′-yl)amino)-2-hydroxy-1-(4-pyridinylmethyl)propyl)acetamide]: the IC50 stood at 0.00304 µM.

`CCCc1nc(C[C@H](NC(C)=O)[C@H](O)CN[C@H]2CC3(CCC3)Oc3ncc(CC(C)(C)C)cc32)cs1` [compound 636, N-((1S,2R)-3-(((4′S)-6′-(2,2-dimethylpropyl)-3′,4′-dihydrospiro[cyclobutane-1,2′-pyrano[2,3-b]pyridin]-4′-yl)amino)-2-hydroxy-1-((2-propyl-1,3-thiazol-4-yl)methyl)propyl)acetamide]: the IC50 is 0.0146 µM.

With `CCCc1scnc1C[C@H](NC(C)=O)[C@H](O)CN[C@H]1CC2(CCC2)Oc2ncc(CC(C)(C)C)cc21` [compound 637, N-((1S,2R)-3-(((4′S)-6′-(2,2-dimethylpropyl)-3′,4′-dihydrospiro[cyclobutane-1,2′-pyrano[2,3-b]pyridin]-4′-yl)amino)-2-hydroxy-1-((5-propyl-1,3-thiazol-4-yl)methyl)propyl)acetamide], the IC50 amounted to 0.922 µM.

Consider `CC(=O)N[C@@H](Cc1cncs1)[C@H](O)CN[C@H]1CC2(CCC2)Oc2ncc(CC(C)(C)C)cc21` [compound 638, N-((1S,2R)-3-(((4′S)-6′-(2,2-dimethylpropyl)-3′,4′-dihydrospiro[cyclobutane-1,2′-pyrano[2,3-b]pyridin]-4′-yl)amino)-2-hydroxy-1-(1,3-thiazol-5-ylmethyl)propyl)acetamide], for which the IC50 stood at 0.00232 µM.

Turning to `CC(=O)N[C@@H](Cc1csc(C)n1)[C@H](O)CN[C@H]1CC2(CCC2)Oc2ncc(CC(C)(C)C)cc21` [compound 639, N-((1S,2R)-3-(((4′S)-6′-(2,2-dimethylpropyl)-3′,4′-dihydrospiro[cyclobutane-1,2′-pyrano[2,3-b]pyridin]-4′-yl)amino)-2-hydroxy-1-((2-methyl-1,3-thiazol-4-yl)methyl)propyl)acetamide], the IC50 came out at 0.0237 µM.

The test is the same for the next values; noted with them: read-out: Cell Assay.
`CC(C)(C)Cc1cnc2c(c1)[C@@H](NC[C@@H](O)[C@H](Cc1ccc(F)cc1)NC(=O)CF)CC1(CCC1)O2` [compound 629]: the IC50 came out at 0.0126 µM.
